Test results: ChEMBL document CHEMBL1201862, “PubChem BioAssay data set” (2004)
“And” between values parts separate entries of the source, which are not always exact repeats. Equal entries are not always repeated.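 How tested: cells in 96-well plates exposed to compound for 48 hours at five concentrations. At the GI50, growth is halved.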 The source made the active and inactive calls. Cut-off read from the data, not from the text of the source: active = GI50 up to about 1.1 µM and inactive = higher.

What was measured:
Test in all cases: growth of human tumour cells (NCI), 48 h
MDA-N = test system: MDA-N
UACC-257 = test system: UACC-257
OVCAR-5 = test system: OVCAR-5
IGROV-1 = test system: IGROV-1
CAKI-1 = test system: CAKI-1
SK-OV-3 = test system: SK-OV-3
LOX IMVI = test system: LOX IMVI
HCC 2998 = test system: HCC 2998
SW-620 = test system: SW-620
OVCAR-4 = test system: OVCAR-4
UO-31 = test system: UO-31
NCI-H460 = test system: NCI-H460
OVCAR-8 = test system: OVCAR-8
HT-29 = test system: HT-29
HOP-62 = test system: HOP-62
SNB-19 = test system: SNB-19
U-251 = test system: U-251
MOLT-4 = test system: MOLT-4
UACC-62 = test system: UACC-62
HCT-15 = test system: HCT-15

| Structure (SMILES) | GI50 (MDA-N) | GI50 (UACC-257) | GI50 (OVCAR-5) | GI50 (IGROV-1) | GI50 (CAKI-1) | GI50 (SK-OV-3) | GI50 (LOX IMVI) | GI50 (HCC 2998) | GI50 (SW-620) | GI50 (OVCAR-4) | GI50 (UO-31) | GI50 (NCI-H460) | GI50 (OVCAR-8) | GI50 (HT-29) | GI50 (HOP-62) | GI50 (SNB-19) | GI50 (U-251) | GI50 (MOLT-4) | GI50 (UACC-62) | GI50 (HCT-15) [µM] |
| --- | --- | --- | --- | --- | --- | --- | --- | --- | --- | --- | --- | --- | --- | --- | --- | --- | --- | --- | --- | --- |
| Oc1ccc2ccccc2c1/N=N/c1ccccc1 | > 100 µM (inactive) | > 100 µM (inactive) | > 100 µM (inactive) | > 69.2 µM (inactive) | > 100 µM (inactive) | 53.3 µM (inactive) | > 100 µM (inactive) | > 100 µM (inactive) | > 100 µM (inactive) | > 70.5 µM (inactive) and 45.2 µM (inactive) | > 100 µM (inactive) | > 100 µM (inactive) | 56.1 µM (inactive) | 49.5 µM (inactive) and > 64.7 µM (inactive) | 33.5 µM (inactive) and > 60 µM (inactive) | > 100 µM (inactive) and > 72.8 µM (inactive) | 51.9 µM (inactive) and > 56 µM (inactive) | > 100 µM (inactive) | > 100 µM (inactive) | > 100 |
| COCCCNc1nc(N)c(C#N)c(C#N)c1C#N | > 10 µM (inactive) | – | > 10 µM (inactive) | > 10 µM (inactive) | > 10 µM (inactive) | > 10 µM (inactive) | > 10 µM (inactive) | > 10 µM (inactive) | > 10 µM (inactive) | > 10 µM (inactive) | > 10 µM (inactive) | > 10 µM (inactive) | > 10 µM (inactive) | > 10 µM (inactive) | > 10 µM (inactive) | > 10 µM (inactive) | > 10 µM (inactive) | > 10 µM (inactive) | > 10 µM (inactive) | > 10 |
| CON(C)c1nc(N(C)OC)nc(N(C)OC)n1 | > 10 µM (inactive) | – | > 10 µM (inactive) | > 10 µM (inactive) | > 10 µM (inactive) | > 10 µM (inactive) | > 10 µM (inactive) | > 10 µM (inactive) | > 10 µM (inactive) | > 10 µM (inactive) | > 10 µM (inactive) | > 10 µM (inactive) | > 10 µM (inactive) | > 10 µM (inactive) | > 10 µM (inactive) | > 10 µM (inactive) | > 10 µM (inactive) | > 10 µM (inactive) | > 10 µM (inactive) | > 10 |
| CC1=C2C(O)C(C(C)C(=O)NC(C)C)CCC2(C)C=CC1=O (centres undefined) | – | > 100 µM (inactive) | > 100 µM (inactive) | > 100 µM (inactive) | > 100 µM (inactive) | > 100 µM (inactive) | > 100 µM (inactive) | > 100 µM (inactive) | > 100 µM (inactive) | > 100 µM (inactive) | > 100 µM (inactive) | > 100 µM (inactive) | > 100 µM (inactive) | > 100 µM (inactive) | > 100 µM (inactive) | > 100 µM (inactive) | > 100 µM (inactive) | > 100 µM (inactive) | > 100 µM (inactive) | > 100 |
| O=C(NC1C=Nc2ccc([N+](=O)[O-])cc2NC1=O)c1cc(Cl)cc([N+](=O)[O-])c1 (centres undefined) | – | > 100 µM (inactive) | > 100 µM (inactive) | > 100 µM (inactive) | > 100 µM (inactive) | > 100 µM (inactive) | > 100 µM (inactive) | > 100 µM (inactive) | > 100 µM (inactive) | > 100 µM (inactive) | > 100 µM (inactive) | > 100 µM (inactive) | > 100 µM (inactive) | > 100 µM (inactive) | > 100 µM (inactive) | > 100 µM (inactive) | > 100 µM (inactive) | 41.6 µM (inactive) | 44.2 µM (inactive) | > 100 |
| COc1nc(C#CCC(C)O)nc(OC)n1 (centres undefined) | 30.6 µM (inactive) | 30.9 µM (inactive) | 19.1 µM (inactive) | 15.7 µM (inactive) | 17.6 µM (inactive) | > 100 µM (inactive) | 14.2 µM (inactive) | – | 23.1 µM (inactive) | 18.8 µM (inactive) | 18.2 µM (inactive) | 39.4 µM (inactive) | 17.1 µM (inactive) | 31.3 µM (inactive) | 4.89 µM (inactive) | > 100 µM (inactive) | 29.6 µM (inactive) | 33.2 µM (inactive) | 15.1 µM (inactive) | 18.6 |
| Cc1cn(C2CC(N)C(C(=O)NCC(=O)O)O2)c(=O)[nH]c1=O (centres undefined) | > 100 µM (inactive) | – | > 100 µM (inactive) | > 100 µM (inactive) | > 100 µM (inactive) | > 100 µM (inactive) | > 100 µM (inactive) | > 100 µM (inactive) | > 100 µM (inactive) | > 100 µM (inactive) | > 100 µM (inactive) | > 100 µM (inactive) | – | > 100 µM (inactive) | > 100 µM (inactive) | > 100 µM (inactive) | > 100 µM (inactive) | > 100 µM (inactive) | > 100 µM (inactive) | > 100 |
| COC1OC2COC(c3ccccc3)OC2C(OC(=S)c2ccccc2)C1O (centres undefined) | > 100 µM (inactive) | > 100 µM (inactive) | > 100 µM (inactive) | > 100 µM (inactive) | 41 µM (inactive) | 19.2 µM (inactive) | 7.76 µM (inactive) | – | > 100 µM (inactive) | > 100 µM (inactive) | > 100 µM (inactive) | 65.9 µM (inactive) | 16.9 µM (inactive) | > 100 µM (inactive) | 12 µM (inactive) | > 100 µM (inactive) | 11.5 µM (inactive) | > 100 µM (inactive) | > 100 µM (inactive) | > 100 |
| N#CN=C(NCCO)NCCO | – | > 100 µM (inactive) | > 100 µM (inactive) | > 100 µM (inactive) | > 100 µM (inactive) | > 100 µM (inactive) | > 100 µM (inactive) | > 100 µM (inactive) | > 100 µM (inactive) | > 100 µM (inactive) | > 100 µM (inactive) | > 100 µM (inactive) | > 100 µM (inactive) | > 100 µM (inactive) | > 100 µM (inactive) | > 100 µM (inactive) | > 100 µM (inactive) | > 100 µM (inactive) | > 100 µM (inactive) | > 100 |
| C=CCc1c(O)c2c(c3oc(=O)cc(C)c13)CC(C)O2 (centres undefined) | – | > 100 µM (inactive) | > 100 µM (inactive) | 20.2 µM (inactive) | > 100 µM (inactive) | > 100 µM (inactive) | 46.3 µM (inactive) | > 100 µM (inactive) | > 100 µM (inactive) | > 100 µM (inactive) | 68.9 µM (inactive) | 52.5 µM (inactive) | 65.3 µM (inactive) | 57.7 µM (inactive) | > 100 µM (inactive) | > 100 µM (inactive) | > 100 µM (inactive) | 56.5 µM (inactive) | > 100 µM (inactive) | > 100 |
| N#Cc1c(OCCF)c2ccccc2n2c1nc1ccccc12 | > 100 µM (inactive) | 93.3 µM (inactive) | > 100 µM (inactive) | 23.8 µM (inactive) | 52.2 µM (inactive) | 27 µM (inactive) | 31.3 µM (inactive) | > 100 µM (inactive) | > 100 µM (inactive) | 32.3 µM (inactive) | 14.2 µM (inactive) | 21.7 µM (inactive) | 42.3 µM (inactive) | 64.3 µM (inactive) | 29.9 µM (inactive) | 29.2 µM (inactive) | 37.6 µM (inactive) | 27.8 µM (inactive) | 48.6 µM (inactive) | 32.7 |
| Cc1ccc(N2C(=O)C3CSCN3C2=O)cc1 (centres undefined) | – | > 100 µM (inactive) | > 100 µM (inactive) | > 100 µM (inactive) | > 100 µM (inactive) | > 100 µM (inactive) | > 100 µM (inactive) | > 100 µM (inactive) | > 100 µM (inactive) | > 100 µM (inactive) | > 100 µM (inactive) | > 100 µM (inactive) | > 100 µM (inactive) | > 100 µM (inactive) | > 100 µM (inactive) | > 100 µM (inactive) | > 100 µM (inactive) | > 100 µM (inactive) | > 100 µM (inactive) | > 100 |
